Data taken from patent US10052320B2, “Substituted quinoxalines as FGFR kinase inhibitors” (ASTEX THERAPEUTICS LIMITED, priority 2011, dated 2018).
Counter-ions that a name gives are not always drawn.

| melting point [°C] | Structure (SMILES) |
| --- | --- |
| 186 | COc1cc(OC)cc(N(CCCNCC(F)(F)F)c2ccc3ncc(-c4ccn(C)c4)nc3c2)c1 (as salt: HCl) [Compound 5] |
| 185 | COc1cc(OC)cc(N(CCNC(C)C)c2ccc3ncc(NCC4CCNCC4)nc3c2)c1 (as salt: HCl) (hydrate or solvate) [Compound 161] |
| 145 | COc1cc(OC)cc(N(CCNC(C)C)c2ccc3ncc(-c4ccn[nH]4)nc3c2)c1 (as salt: HCl) [Compound 189] |
| 222 | COc1cc(OC)cc(N(CCN2C(=O)c3ccccc3C2=O)c2ccc3ncc(-c4ccc(N)nc4)nc3c2)c1 [Compound 57] |
| 193 | COc1cc(OC)cc(N(CCNC(C)C)c2ccc3ncc(N4CCC(CN)CC4)nc3c2)c1 (as salt: HCl) (hydrate or solvate) [Compound 67] |
| 250 | COc1cc(OC)cc(N(CCNC(C)C)c2ccc3ncc(C(=O)N4CCN(C)CC4)nc3c2)c1 (as salt: HCl) (hydrate or solvate) [Compound 179] |
| 149 | COc1cc(OC)cc(N(CCNC(C)C)c2ccc3ncc(C(=O)NCCN4CCOCC4)nc3c2)c1 (as salt: HCl) (hydrate or solvate) [Compound 160] |
| 149 | COc1cc(OC)cc(N(CCNC(C)C)c2ccc3ncc(-c4ccccc4)nc3c2)c1 (as salt: HCl) (hydrate or solvate) [Compound 121] |
| 105 | COc1cc(OC)cc(N(CC2CC2)c2ccc3ncc(-c4ccc5c(ccn5C)c4)nc3c2)c1 (as salt: HCl) (hydrate or solvate) [Compound 20] |
| 138 | COc1cc(OC)cc(N(CCCNCC(F)(F)F)c2ccc3ncc(C(=O)NCCN4CCOCC4)nc3c2)c1 (as salt: HCl) (hydrate or solvate) [Compound 158] |
| 223 | COc1cc(OC)cc(N(CC2CC2)c2ccc3ncc(-n4ccnc4C)nc3c2)c1 (as salt: HCl) [Compound 32] |
| 200 | COc1cc(OC)cc(N(CCNC(C)C)c2ccc3ncc(-c4ccn(C)c4)nc3c2)c1 (as salt: HCl) [Compound 8] |
| 174 | COc1cc(OC)cc(N(CCNC(C)C)c2ccc3ncc(-c4cccnc4)nc3c2)c1 (as salt: HCl) (hydrate or solvate) [Compound 10] |
| 170 | COc1cc(OC)cc(N(Cc2cccc(CN)n2)c2ccc3ncc(-c4ccc(N)nc4)nc3c2)c1 (as salt: HCl) [Compound 51] |
| 176 | COc1cc(OC)cc(N(CCNC(C)C)c2ccc3ncc(C(=O)NCCCN4CCN(C)CC4)nc3c2)c1 (as salt: HCl) (hydrate or solvate) [Compound 159] |
| 80 | COCC(CN(c1cc(OC)cc(OC)c1)c1ccc2ncc(-c3cccnc3)nc2c1)OC(C)=O (single isomer, unassigned) (as salt: HCl) (hydrate or solvate) [Compound 76] |
| 150 | COc1cc(OC)cc(N(CCNC(C)C)c2ccc3ncc(-n4cnc(CO)c4)nc3c2)c1 (as salt: HCl) (hydrate or solvate) [Compound 77] |
| 188 | COc1cc(OC)cc(N(CCNC(C)C)c2ccc3ncc(-c4ccnc(C(=O)NCCCN)c4)nc3c2)c1 (as salt: HCl) (hydrate or solvate) [Compound 146] |
| 255 | COc1cc(OC)cc(N(CCNC(C)C)c2ccc3ncc(C(=O)N4CCOCC4)nc3c2)c1 (as salt: HCl) (hydrate or solvate) [Compound 181] |
| 236 | COc1cc(OC)cc(N(CCNC(C)C)c2ccc3ncc(C(=O)N4CCCCC4)nc3c2)c1 (as salt: HCl) (hydrate or solvate) [Compound 180] |
| 134 | COc1cc(OC)cc(N(CC2CC2)c2ccc3ncc(-c4ccn[nH]4)nc3c2)c1 (as salt: HCl) [Compound 58] |
